This is an account of results in ChEMBL document CHEMBL1201862, “PubChem BioAssay data set” (2004).

Holding throughout (experiment): NCI anticancer screen, dose series, 48 h
The subject of assay [1] is DLD-1.
Assay [2] deals with DMS-114.
The test system of assay [3] is DMS-273.
Assay [4] concerns HOP-18.
For assay [5], the system named is KM-20L2.
In assay [6] the test system is M19-MEL.
In assay [7] the test system is SNB-78.
Assay [8] deals with XF498.
The subject of assay [9] is RXF 631.

Each structure is given as a SMILES string.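 Protocol summary: plate cells (96-well), add compound at 5 concentrations, incubate 48 h, interpolate endpoints linearly. GI50: concentration for 50% inhibition of growth.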 Activity calls are given as the source filed them. No stated cut-off is given here; in the data, active = GI50 up to about 1.1 µM and inactive = higher.

Turning to `Oc1cc(-c2ccccc2)nc2cc(Cl)ccc12`, the GI50 in assay [1] is 0.384 µM (active); in assay [2], 0.383 µM (active); in assay [3], 0.526 µM (active); in [4] it was 11.2 µM (inactive); in [5], 1.52 µM (inactive); in [6], 0.575 µM (active). Besides, the GI50 is 3.34 µM (inactive) in assay [7] and 0.304 µM (active) in assay [8].

For `O=C1CCC2(c3ccc(F)cc3)Nc3cc(Cl)ccc3N12` (centres undefined), the GI50 in assay [1] was > 100 µM (inactive); in assay [2] it was 38.8 µM (inactive); in [3], > 100 µM (inactive); in [4] it was 48.3 µM (inactive); in assay [5] it was > 100 µM (inactive); in assay [6] it was > 100 µM (inactive). Further, the GI50 is > 100 µM (inactive) in assay [7] and 20.1 µM (inactive) in assay [8].

For the molecule `O=C1OC(CCCl)(c2ccccc2)CC1CN1CCOCC1` (centres undefined), the GI50 in assay [1] was 17.7 µM (inactive); in assay [2] it was 20.4 µM (inactive); in assay [5] it was 39.5 µM (inactive); in [6], 22.1 µM (inactive); in assay [7], 26.2 µM (inactive); in assay [8] it was 14.6 µM (inactive).

`O=C(CC1(O)C(=O)Nc2c(Cl)ccc(Cl)c21)c1ccc(Cl)cc1Cl` (centres undefined): the GI50 in assay [1] was 28 µM (inactive); in assay [2], 19.3 µM (inactive); in assay [3] it was 16.4 µM (inactive); in assay [4], 35.1 µM (inactive); in assay [5], 35.4 µM (inactive); in assay [6], 7.16 µM (inactive). Also, the values for the GI50 in assay [7] and in [8] were 41.6 µM (inactive) and 19.8 µM (inactive), respectively.

Regarding `CCC1CCC2CCCC(C)N12` (centres undefined), the GI50 in [1], in assay [2], in [3], in assay [4], in assay [5] and in assay [6] was > 100 µM (inactive) each time. For the same molecule, the GI50 in assay [9] and in assay [8] was > 100 µM (inactive) in each case.

As to `Cc1ccc(F)c2c(=O)cc(-c3ccccc3)[nH]c12`, the GI50 in [1] was > 100 µM (inactive); in assay [2], > 100 µM (inactive); in assay [3] it was 94.6 µM (inactive); in assay [4] it was > 100 µM (inactive); in assay [6], > 100 µM (inactive).

Take `NCCOCn1cc(Cc2cccc(OCc3ccccc3)c2)c(=O)[nH]c1=O`: the GI50 in assay [1] is > 100 µM (inactive); in assay [2] it was 77.1 µM (inactive); in [3], 70 µM (inactive); in assay [4], > 100 µM (inactive); in [5], > 100 µM (inactive); in assay [7] it was > 100 µM (inactive).

As to `O=C(/N=C(/Nc1ccccc1)SCCS/C(=N\C(=O)c1ccccc1)Nc1ccccc1)c1ccccc1`, the GI50 in assay [1] is 49.8 µM (inactive); in assay [2] it was 35.7 µM (inactive); in [3], 78.3 µM (inactive); in assay [5], 68.9 µM (inactive); in [6] it was 63.5 µM (inactive); in [7] it was > 100 µM (inactive). In assay [8], the GI50 was 36.9 µM (inactive).

Turning to `CC(=O)NNc1ncc(C(=O)/C=C/c2ccccc2C)s1`, the GI50 in [1], in [2], in assay [3], in assay [4], in assay [5] and in assay [6] was > 100 µM (inactive) each time. Besides, the GI50 in assay [9] and in assay [7] was > 100 µM (inactive) in each case.

For the molecule `CCOc1ccc(N(CC(=O)N2CC(=O)Nc3cc(C)c(C)cc32)C(C)=O)cc1`, the GI50 in assay [1], in assay [3], in [4], in [5], in assay [6] and in assay [7] was > 100 µM (inactive) throughout. In addition, the GI50 in assay [8] is > 100 µM (inactive).

On to `[O-][S+]1Cc2ccccc2CSS1` (centres undefined), for which the GI50 in [1] is 18.1 µM (inactive); in [2], 17.2 µM (inactive); in assay [3], 11.8 µM (inactive); in [4] it was 27.9 µM (inactive); in assay [5] it was 16.9 µM (inactive); in [6] it was 20.2 µM (inactive). Also, the GI50 was 19.8 µM (inactive) in [9], 20 µM (inactive) in assay [7] and 19.7 µM (inactive) in assay [8].

In the case of `COC(=O)C1=CCS(=O)(=O)C1`, the GI50 in assay [1], in [2], in assay [4], in assay [5], in assay [6] and in [9] was > 100 µM (inactive) in each case. Further, the GI50 in [7] and in [8] was > 100 µM (inactive) in each case.

In the case of `O=C(c1ccccc1)[C@H]1Nc2ccc(Cl)cc2[C@H]2c3ccccc3O[C@H]21`, the GI50 in [1] is 14 µM (inactive); in assay [2], 15.8 µM (inactive); in [3], 18.7 µM (inactive); in [4], 11.7 µM (inactive); in [5], 14.9 µM (inactive); in assay [6], 19.1 µM (inactive). Moreover, the GI50 was 14.9 µM (inactive) in assay [7] and 14.7 µM (inactive) in [8].

In the case of `CC(=O)O[C@H]1CC2C=CC3C(CCC31)O2` (some centres undefined), the GI50 in [1], in assay [2], in [3], in assay [4], in assay [5] and in assay [6] was > 100 µM (inactive) each time. For the same molecule, the GI50 in assay [7] and in [8] was > 100 µM (inactive) throughout.

Regarding `O=C1NC2(CCCC2)/C(=N\O)C12CCCC2`, the GI50 in assay [1], in assay [2], in assay [3], in assay [4], in assay [6] and in assay [7] was > 100 µM (inactive) in each case. For the same molecule, in assay [8], the GI50 is > 100 µM (inactive).

On to `CCN(CC)CC(=O)/C=C/c1ccc(C)cc1`, for which the GI50 in [1] was 25.1 µM (inactive); in [2] it was 21.9 µM (inactive); in [3] it was 22.2 µM (inactive); in [4], 23.2 µM (inactive); in [5], 20.6 µM (inactive); in [6], 17.6 µM (inactive). In addition, the GI50 in assay [7] was 51.8 µM (inactive); in assay [8], 31 µM (inactive).

For the molecule `COc1ccc(C2(CN(C)C)COc3cc(OC)c(OC)cc3C2=O)cc1OC` (centres undefined), the GI50 in assay [1] is 20.1 µM (inactive); in assay [2], 23.6 µM (inactive); in assay [4], > 100 µM (inactive); in [5] it was > 100 µM (inactive); in assay [6] it was 66.8 µM (inactive); in assay [9] it was 75.7 µM (inactive). Moreover, the figures for the GI50 in assay [7] and in assay [8] were 41.3 µM (inactive) and 30.1 µM (inactive), respectively.

Take `CCOc1cn(C2OC(CO)C(O)C2O)c(=O)[nH]c1=O` (centres undefined): the GI50 in [1] was 90.2 µM (inactive); in assay [2], > 100 µM (inactive); in assay [3], > 100 µM (inactive); in [4], > 100 µM (inactive); in assay [5], > 100 µM (inactive); in [6], > 100 µM (inactive). In addition, the GI50 in [7] is > 100 µM (inactive).

As to `CCCCC1(C(NC(=O)c2ccccc2Cl)c2ccncc2)C(=O)N(c2ccccc2)N(c2ccccc2)C1=O` (centres undefined), the GI50 in [1] was 39.7 µM (inactive); in assay [2] it was 41.4 µM (inactive); in assay [3], 27 µM (inactive); in assay [4], > 100 µM (inactive); in assay [5], 59.7 µM (inactive); in assay [6], 47.5 µM (inactive). Besides, the GI50 in [7] was 56.8 µM (inactive); in [8], 35.9 µM (inactive).

As for `CCCCCCCCc1cc2c(O)c(c1)Cc1cc(CCCCCCCC)cc(c1O)Cc1cc(CCCCCCCC)cc(c1O)Cc1cc(CCCCCCCC)cc(c1O)Cc1cc(CCCCCCCC)cc(c1O)Cc1cc(CCCCCCCC)cc(c1O)C2`, the GI50 in assay [1], in assay [2], in assay [4], in assay [5], in [9] and in [7] was > 100 µM (inactive) throughout. For the same molecule, the GI50 in assay [8] is > 100 µM (inactive).

As for `O=C1CC[C@@H](NC(=O)Cc2ccccc2)C(=O)N1`, the GI50 in assay [1], in assay [3], in assay [4], in assay [5], in assay [6] and in assay [8] was > 100 µM (inactive) each time.

On to `O=c1/c(=C/c2ccc(Cl)cc2Cl)sc2nc3ccccc3n12`, for which the GI50 in [1], in [2], in [3], in [4], in [5] and in assay [6] was > 100 µM (inactive) each time. The GI50 in assay [9], in assay [7] and in [8] was > 100 µM (inactive) each time.

On to `CO[C@H]1CC[C@]2(C)C3=CC[C@@]4(C)C(CC[C@@H]4C(C)CC[C@@H](C)C(C)C)C(=CCC2C1)O3` (some centres undefined), for which the GI50 in assay [1], in assay [2], in [3], in assay [4], in assay [5] and in assay [6] was > 25 µM (inactive) each time. The GI50 in assay [7] and in assay [8] was > 25 µM (inactive) each time.

`COC1=CC(=O)C2C(C1=O)C(c1ccccc1)[C@H]2C` (some centres undefined): the GI50 in assay [1] is > 10 µM (inactive); in assay [3] it was > 100 µM (inactive); in assay [7], > 10 µM (inactive); in [8] it was 22.3 µM (inactive).

Consider `O=C1Sc2ccccc2C(=O)N2CSCC12` (centres undefined), for which the GI50 in assay [1], in assay [2], in assay [3], in assay [4], in [5] and in assay [6] was > 100 µM (inactive) in each case. Moreover, the GI50 in assay [7] and in [8] was > 100 µM (inactive) throughout.
